The text below walks through data of PubChem BioAssay (NCI).

“And” between values parts separate entries of the source, which are not always exact repeats. Equal entries are not always repeated.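 Method: 48-hour compound exposure of cells in 96-well plates, five concentrations, linear interpolation of endpoints. GI50 marks 50% less growth. TGI: total growth inhibition.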

Among the test systems are RPMI-8226 leukemia; M14 melanoma; SNB-19 CNS; NCI/ADR-RES ovarian; MDA-MB-435; HOP-62 NSCLC; HS 578T breast; NCI-H522 lung; COLO 205 colon; CCRF-CEM leukemia.
Assay in all cases: DTP human tumour cell line panel, 48 h

Take `CCN1C(=O)N(CC)C2C1NN=c1s/c(=C\c3ccc[nH]3)c(=O)n12` (configuration not stated): the GI50 was 481 nM in the test on RPMI-8226 leukemia; 385 nM in the test on M14 melanoma; 626 nM in the test on SNB-19 CNS; 413 nM in the test with NCI/ADR-RES ovarian; 83.2 nM in the test with MDA-MB-435; 603 nM in the test with HOP-62 NSCLC. Also, the GI50 in the test with HS 578T breast is 335 nM; with NCI-H522 lung it was 244 nM; in the test with COLO 205 colon it was 349 nM; in the test with CCRF-CEM leukemia, 402 nM. Moreover, the concentration for total growth inhibition (TGI) is over 100000 nM in the test on RPMI-8226 leukemia; over 100000 nM with M14 melanoma; over 100000 nM in the test with SNB-19 CNS; over 100000 nM in the test with NCI/ADR-RES ovarian; 421 nM with MDA-MB-435; over 100000 nM with HOP-62 NSCLC. Further, the TGI in the test with HS 578T breast was over 100000 nM; in the test with NCI-H522 lung it was 8340 nM; with COLO 205 colon, 1820 nM; in the test with CCRF-CEM leukemia, over 100000 nM.
Consider `O=[N+]([O-])c1ccc2c(Nc3ccccc3-c3ccccc3Nc3c4ccccc4nc4cc([N+](=O)[O-])ccc34)c3ccccc3nc2c1`, for which the TGI is over 39900 nM with RPMI-8226 leukemia; 18400 nM in the test on M14 melanoma; 43800 nM with SNB-19 CNS; 25700 nM with NCI/ADR-RES ovarian; 3800 nM in the test with MDA-MB-435; 41400 nM in the test with HOP-62 NSCLC. Also, the TGI in the test on HS 578T breast was 14900 nM; with NCI-H522 lung, 17400 nM; in the test on COLO 205 colon, 9530 nM; with CCRF-CEM leukemia it was 37600 nM.
As for `Cc1cccc2c(Nc3ccc(NS(C)(=O)=O)cc3)c3ccc([N+](=O)[O-])cc3nc12`, the GI50 with RPMI-8226 leukemia is 1090 nM; in the test on M14 melanoma, 808 nM; in the test on SNB-19 CNS it was 456 nM; in the test with NCI/ADR-RES ovarian, 8300 nM; in the test with MDA-MB-435 it was 1850 nM; in the test on HOP-62 NSCLC it was 373 nM. Also, the GI50 with HS 578T breast is 1230 nM; with NCI-H522 lung it was 1110 nM; in the test on COLO 205 colon it was 1030 nM; in the test on CCRF-CEM leukemia it was 326 nM. Moreover, the TGI turned out to be 7560 nM in the test with RPMI-8226 leukemia; 3400 nM in the test on M14 melanoma; 14700 nM in the test on SNB-19 CNS; 47100 nM in the test with NCI/ADR-RES ovarian; 7270 nM in the test with MDA-MB-435; 4870 nM in the test on HOP-62 NSCLC. Moreover, the TGI in the test with HS 578T breast worked out at 5420 nM; in the test with NCI-H522 lung, 2520 nM; in the test on COLO 205 colon, 3790 nM; with CCRF-CEM leukemia, 4520 nM.
Take `C=CCn1c(=O)c2cnc(Nc3ccc(N4CCN(C)CC4)cc3)nc2n1-c1cccc(C(C)(C)O)n1`: the GI50 in the test on RPMI-8226 leukemia was 1650 nM and 1520 nM; with M14 melanoma, 191 nM and 213 nM; in the test with SNB-19 CNS it was 1170 nM and 526 nM; in the test with NCI/ADR-RES ovarian it was 2190 nM and 2730 nM; in the test on MDA-MB-435, 201 nM and 247 nM; in the test on HOP-62 NSCLC it was 1400 nM and 802 nM. Besides, the GI50 with HS 578T breast was 894 nM and 471 nM; in the test with NCI-H522 lung it was 176 nM and 293 nM; in the test with COLO 205 colon, 311 nM and 623 nM; with CCRF-CEM leukemia it was 271 nM and 294 nM. Besides, the TGI in the test on RPMI-8226 leukemia was 5610 nM and 6220 nM; in the test with M14 melanoma it was 11200 nM and > 5860 nM; with SNB-19 CNS, over 100000 nM; in the test with NCI/ADR-RES ovarian, 18600 nM and > 10000 nM; in the test with MDA-MB-435 it was 561 nM and 666 nM; in the test with HOP-62 NSCLC it was 14400 nM and > 10000 nM. The TGI in the test on HS 578T breast is over 60000 nM; in the test on NCI-H522 lung, 645 nM and 2080 nM; in the test with COLO 205 colon, 2410 nM and > 6700 nM.
Turning to `C[C@@H]1COCCN1c1cc(-c2ccnn2C)c2ccnc(-c3ccn[nH]3)c2n1`, the GI50 with RPMI-8226 leukemia is 177 nM and 202 nM; in the test on M14 melanoma it was 29.1 nM and 47.1 nM; with SNB-19 CNS it was 230 nM and 310 nM; in the test with NCI/ADR-RES ovarian, 101 nM and 280 nM; in the test on MDA-MB-435, 98.4 nM and 199 nM; with HOP-62 NSCLC it was 112 nM and 216 nM. The GI50 in the test with HS 578T breast is 99.4 nM and 291 nM; in the test with NCI-H522 lung, 172 nM and 528 nM; in the test with COLO 205 colon, 280 nM and 573 nM; in the test on CCRF-CEM leukemia it was 17.5 nM and 30 nM. Moreover, the TGI in the test with RPMI-8226 leukemia was 3010 nM and 5400 nM; in the test on SNB-19 CNS, over 100000 nM; with NCI/ADR-RES ovarian, 2430 nM and 4780 nM; in the test on MDA-MB-435, 2890 nM and 5000 nM; with HOP-62 NSCLC, 1940 nM; with HS 578T breast it was 643 nM and 2060 nM. In addition, the TGI is 5700 nM and > 23400 nM in the test on COLO 205 colon; over 23700 nM in the test on CCRF-CEM leukemia.
As for `Brc1cccc(-c2cc(-c3ccc4nccnc4c3)[nH]n2)c1`, the GI50 was 865 nM in the test on RPMI-8226 leukemia; 430 nM in the test on M14 melanoma; 1410 nM with SNB-19 CNS; 318 nM in the test with NCI/ADR-RES ovarian; 74.3 nM in the test with MDA-MB-435; 1020 nM with HOP-62 NSCLC. Besides, the GI50 was 1020 nM in the test with HS 578T breast, 412 nM in the test with NCI-H522 lung, 286 nM in the test on COLO 205 colon and 864 nM with CCRF-CEM leukemia. Further, the TGI in the test with RPMI-8226 leukemia was 76400 nM; in the test on M14 melanoma, over 250000 nM; in the test with SNB-19 CNS it was over 250000 nM; in the test on NCI/ADR-RES ovarian, 34300 nM; in the test with MDA-MB-435, 412 nM; in the test on HOP-62 NSCLC, over 250000 nM. Besides, the TGI in the test on HS 578T breast is over 250000 nM; with NCI-H522 lung, over 250000 nM; in the test with COLO 205 colon it was 3930 nM; with CCRF-CEM leukemia, over 250000 nM.
For `O=C1c2ccccc2C(=O)N1C1(C(=O)NC2(C(=O)O)CCCC2)CCCC1`, the TGI with RPMI-8226 leukemia, in the test with M14 melanoma, in the test on SNB-19 CNS, in the test on NCI/ADR-RES ovarian, in the test on MDA-MB-435 and in the test on HOP-62 NSCLC was over 100000 nM in each case. For the same compound, the TGI in the test on HS 578T breast, with NCI-H522 lung, in the test on COLO 205 colon and with CCRF-CEM leukemia was over 100000 nM in each case.
Regarding `COc1ccc(-c2ccc(/C=N/n3c(COc4ccccc4Cl)n[nH]c3=S)o2)c([N+](=O)[O-])c1`, the GI50 in the test on RPMI-8226 leukemia was 24900 nM; in the test on M14 melanoma it was 26600 nM; in the test with SNB-19 CNS, 42200 nM; in the test with NCI/ADR-RES ovarian it was 22600 nM; with MDA-MB-435, 20000 nM; with HOP-62 NSCLC, 26700 nM. Moreover, the GI50 in the test with HS 578T breast was 32500 nM; in the test on NCI-H522 lung, 49000 nM; with COLO 205 colon it was 40200 nM; in the test with CCRF-CEM leukemia, 23100 nM. For the same compound, the TGI with RPMI-8226 leukemia was 92900 nM; in the test on M14 melanoma, 79100 nM; with SNB-19 CNS, over 100000 nM; in the test on NCI/ADR-RES ovarian it was 57100 nM; in the test with MDA-MB-435, 46600 nM; with HOP-62 NSCLC, 69300 nM. Besides, the TGI was 98700 nM in the test on HS 578T breast, over 100000 nM in the test with NCI-H522 lung, over 100000 nM in the test on COLO 205 colon and over 100000 nM with CCRF-CEM leukemia.

The GI50 is the concentration at which growth is held to half of that of the control. What is called TGI is the concentration at which net growth stops. Read a low TGI as more potent growth arrest.
